Experimental data published in ChEMBL document CHEMBL2086361, “Synthesis and biological activity of pyridopyridazin-6-one p38α MAP kinase inhibitors. Part 2” (Bioorg Med Chem Lett, 2012).

Tests used:
in vivo [1] = conditions: rhesus monkey
in vivo [2] = conditions: rat, plasma
in vivo [3] = conditions: rat, po, 2 mg/kg
in vivo [4] = conditions: rhesus monkey, iv, 1 mg/kg
in vivo [5] = conditions: dog
in vivo [6] = conditions: rat, iv, 1 mg/kg
in vivo [7] = conditions: rat
in vivo [8] = conditions: dog, iv, 0.25 mg/kg
in vivo [9] = conditions: dog, plasma
in vivo [10] = conditions: rhesus monkey, po, 2 mg/kg
in vivo [11] = conditions: dog, po, 2 mg/kg
in vivo [12] = conditions: rhesus monkey, plasma

Cc1nnc(-c2ccc(F)c(-c3c(=O)ccn4nc(Oc5ccc(F)cc5F)ccc34)c2)o1
half-life (in vivo [1]): 6.9 h | AUC (in vivo [2]): 20 µM·h | bioavailability (in vivo [3]): 93% | clearance (in vivo [4]): 2 mL/min/kg | half-life (in vivo [5]): 4.5 h | clearance (in vivo [6]): 2 mL/min/kg | half-life (in vivo [7]): 4.4 h | clearance (in vivo [8]): 2.8 mL/min/kg | AUC (in vivo [9]): 2.1 µM·h | bioavailability (in vivo [10]): 31% | bioavailability (in vivo [11]): 15% | AUC (in vivo [12]): 5.6 µM·h
